Test results published in patent US12715896B2 (priority 2020, dated 2026).
Non-standard residues stand in square brackets, D forms with d. Residues, ends and D or L forms follow the SMILES beside them. *: point of attachment. Met(O2) = CS(=O)(=O)CC[C@H](N)C(=O)O; Cha = N[C@@H](CC1CCCCC1)C(=O)O; Tle = CC(C)(C)[C@H](N)C(=O)O; Nva = CCC[C@H](N)C(=O)O; Cbz = O=C(OCc1ccccc1)*; Boc = CC(C)(C)OC(=O)*

Legend:
SARS-CoV-2 M^pro [1] = molecular target: T1, SARS-CoV-2 M^pro (Severe acute respiratory syndrome coronavirus 2, UniProt P0DTD1); experiment: FRET-based enzymatic assay for SARS-CoV-2 main protease; format: biochemical; details: for inhibition at 20 µM: read-out: inhibition against M^pro in primary screening
SARS-CoV-2 M^pro [2] = molecular target: T1, SARS-CoV-2 M^pro; format: binding; details: 30 μM compound; for 2019-nCoV 3CL TSA Tm: melting temperature with compound, DMSO 55.74; for 2019-nCoV 3CL TSA ΔTm: shift vs DMSO

Row | SMILES | IC50 (SARS-CoV-2 M^pro [1]) [nM] | further results
1 | CC(C)(C)NC(=O)N[C@H](C(=O)N1C[C@H]2[C@@H]([C@H]1C(=O)NC(CC1CCC1)C(=O)C(N)=O)C2(C)C)C(C)(C)C (stereo partly drawn) [Boceprevir (28), Boceprevir] |  | inhibition at 20 µM (SARS-CoV-2 M^pro [1]): > 60%; 2019-nCoV 3CL TSA Tm (SARS-CoV-2 M^pro [2]): 62.41 ± 0.21/6.67 °C
2 | CSCC[C@@H](C=O)NC(=O)[C@H](CC(C)C)NC(=O)[C@H](CC(C)C)NC(C)=O [Calpain inhibitor II (61), Calpain inhibitor II] (Ac-Leu-Leu-Met-aldehyde) |  | 2019-nCoV 3CL TSA Tm (SARS-CoV-2 M^pro [2]): 62.93 ± 0.14 °C; 2019-nCoV 3CL TSA ΔTm (SARS-CoV-2 M^pro [2]): 6.65 °C
3 | CC(C)C[C@@H](C=O)NC(=O)[C@@H](NS(=O)(=O)c1ccc(F)cc1)C(C)C [Calpain inhibitor VI (58), Calpain inhibitor VI] |  | 2019-nCoV 3CL TSA Tm (SARS-CoV-2 M^pro [2]): 55.46 ± 0.14 °C; 2019-nCoV 3CL TSA ΔTm (SARS-CoV-2 M^pro [2]): −0.28 °C
4 | CCCC[C@@H](C=O)NC(=O)[C@H](CC(C)C)NC(=O)OCc1ccccc1 [Calpeptin (56), Calpeptin] |  | 2019-nCoV 3CL TSA Tm (SARS-CoV-2 M^pro [2]): 56.84 ± 0.00 °C; 2019-nCoV 3CL TSA ΔTm (SARS-CoV-2 M^pro [2]): 1.1 °C
5 | CCC[C@H](NC(=O)[C@H](CC(C)C)NC(=O)OCc1ccccc1)C(=O)C(=O)NC1CC1 [Jun8-18-2] | > 20000 | 
6 | CCC[C@H](NC(=O)[C@H](CC(C)C)NC(=O)[C@H](CC(C)C)NC(=O)OCc1ccccc1)C(=O)C(=O)NC1CC1 [Jun8-18-4] | 340 | 
7 | CCC[C@H](NC(=O)[C@H](CC(C)C)NC(=O)[C@@H](NC(=O)OCc1ccccc1)C(C)C)C(=O)C(=O)NC1CC1 [Jun8-29-2] | 480 | 
8 | CCC[C@H](NC(=O)[C@H](CC(C)C)NC(=O)[C@H](Cc1ccccc1)NC(=O)OCc1ccccc1)C(=O)C(=O)NC1CC1 [Jun8-29-4] | 480 | 
9 | CSCC[C@H](NC(=O)[C@H](CC(C)C)NC(=O)[C@H](CC(C)C)NC(=O)OCc1ccccc1)C(=O)C(=O)NC1CC1 [Jun8-43-3] | 2800 | 
10 | CSCC[C@@H](C=O)NC(=O)[C@H](CC(C)C)NC(=O)[C@H](CC(C)C)NC(=O)OCc1ccccc1 [Jun8-61-4] (Cbz-Leu-Leu-Met-aldehyde) | 110 | 
11 | CSCC[C@@H](C=O)NC(=O)[C@H](CC(C)C)NC(C)=O [Jun8-102-1] (Ac-Leu-Met-aldehyde) | 4770 | 
12 | CSCC[C@@H](C=O)NC(=O)[C@H](CC(C)C)NC(=O)OCc1ccccc1 [Jun8-102-2] (Cbz-Leu-Met-aldehyde) | 910 | 
13 | CSCC[C@@H](C=O)NC(=O)[C@H](CC(C)C)NC(=O)OC(C)(C)C [Jun9-2-3] (Boc-Leu-Met-aldehyde) | > 20000 | 
14 | CSCC[C@@H](C=O)NC(=O)[C@H](CC(C)C)NC(=O)[C@H](CC(C)C)NC(=O)OC(C)(C)C [Jun9-2-4] (Boc-Leu-Leu-Met-aldehyde) | 390 | 
15 | CSCC[C@@H](C=O)NC(=O)[C@H](CC(C)C)NC(=O)[C@H](Cc1ccccc1)NC(C)=O [Jun9-2-5] (Ac-Phe-Leu-Met-aldehyde) | 270 | 
16 | CSCC[C@H](NC(=O)[C@H](CC(C)C)NC(=O)[C@H](CC(C)C)NC(C)=O)C(=O)C(=O)NC1CC1 [Jun9-11-3] | 540 | 
17 | CSCC[C@H](NC(=O)[C@H](CC(C)C)NC(=O)[C@H](CC(C)C)NC(C)=O)C(=O)C(=O)NC(C)C [Jun9-11-4] | 5990 | 
18 | CSCC[C@H](NC(=O)[C@H](CC(C)C)NC(=O)[C@H](CC(C)C)NC(C)=O)C(=O)C(=O)NCc1ccccc1 [Jun9-11-5] | 1770 | 
19 | CC(C)C[C@H](NC(=O)CNC(=O)OCc1ccccc1)C(=O)N[C@@H](CC[S+](C)[O-])C(=O)C(=O)NC1CC1 (stereo partly drawn) [Jun9-24-1] | 510 | 
20 | CSCC[C@H](NC(=O)[C@H](CC(C)C)NC(=O)[C@H](Cc1ccccc1)NC(C)=O)C(=O)C(=O)NC1CC1 [Jun9-24-3] | 460 | 
21 | CC(=O)N[C@@H](Cc1ccccc1)C(=O)N[C@@H](CC(C)C)C(=O)N[C@@H](CC[S+](C)[O-])C(=O)C(=O)NC1CC1 (stereo partly drawn) [Jun9-24-4] | 290 | 
22 | CCC[C@H](NC(C)=O)C(=O)N[C@@H](CC(C)C)C(=O)N[C@@H](CCSC)C(=O)C(=O)NC1CC1 [Jun9-24-5] | 640 | 

Row | SMILES | IC50 (SARS-CoV-2 M^pro [1]) [nM] | further results
23 | CSCC[C@H](NC(=O)[C@H](CC(C)C)NC(=O)CNC(=O)OCc1ccccc1)C(=O)C(=O)NC1CC1 [Jun9-47-4] | 1200 | 
24 | CCC[C@@H](C=O)NC(=O)[C@H](CC(C)C)NC(=O)[C@H](CC(C)C)NC(C)=O [Jun9-48-3] (Ac-Leu-Leu-[Nva]-aldehyde) | 38500 | 
25 | CCC[C@H](NC(=O)[C@H](CC(C)C)NC(=O)[C@H](CC(C)C)NC(C)=O)C(=O)C(=O)NC1CC1 [Jun9-49-1] | 5890 | 
26 | CCC[C@@H](C=O)NC(=O)[C@H](CC(C)C)NC(=O)CNC(=O)OCc1ccccc1 [Jun9-52-3] (Cbz-Gly-Leu-[Nva]-aldehyde) | > 20000 | 
27 | CCC[C@H](NC(=O)[C@H](CC(C)C)NC(=O)CNC(=O)OCc1ccccc1)C(=O)C(=O)NC1CC1 [Jun9-52-4] | 17700 | 
28 | CC(C)C[C@H](NC(=O)CNC(=O)OCc1ccccc1)C(=O)N[C@@H](CCS(C)(=O)=O)C(=O)C(=O)NC1CC1 [Jun9-56-2] | 130 | 
29 | CC(=O)N[C@@H](Cc1ccccc1)C(=O)N[C@@H](CC(C)C)C(=O)N[C@@H](CCS(C)(=O)=O)C(=O)C(=O)NC1CC1 [Jun9-56-3] | 140 | 
30 | CC(=O)N[C@@H](CC(C)C)C(=O)N[C@@H](CC(C)C)C(=O)N[C@H](C=O)CCS(C)(=O)=O [Jun9-58-1] (Ac-Leu-Leu-[Met(O2)]-aldehyde) | 490 | 
31 | CC(=O)N[C@@H](CC(C)C)C(=O)N[C@@H](CC(C)C)C(=O)N[C@@H](CC[S+](C)[O-])C(=O)C(=O)NC1CC1 (stereo partly drawn) [Jun9-59-2] | 360 | 
32 | CC(=O)N[C@@H](CC(C)C)C(=O)N[C@@H](CC(C)C)C(=O)N[C@@H](CCS(C)(=O)=O)C(=O)C(=O)NC1CC1 [Jun9-65-1] | 180 | 
33 | CSCC[C@@H](C=O)NC(=O)[C@H](CC1CCCCC1)NC(=O)[C@@H](NC(C)=O)C(C)(C)C [Jun9-66-1] (Ac-[Tle]-[Cha]-Met-aldehyde) | 320 | 
34 | CSCC[C@@H](C=O)NC(=O)[C@H](CC(C)C)NC(=O)[C@H](CC1CCCCC1)NC(C)=O [Jun9-66-2] (Ac-[Cha]-Leu-Met-aldehyde) | 290 | 
35 | CSCC[C@H](NC(=O)[C@H](CC1CCCCC1)NC(=O)[C@@H](NC(C)=O)C(C)(C)C)C(=O)C(=O)NC1CC1 [Jun9-66-3] | 1520 | 
36 | CSCC[C@H](NC(=O)[C@H](CC(C)C)NC(=O)[C@H](CC1CCCCC1)NC(C)=O)C(=O)C(=O)NC1CC1 [Jun9-66-4] | 220 | 
37 | CC(=O)N[C@@H](CC1CCCCC1)C(=O)N[C@@H](CC(C)C)C(=O)N[C@@H](CCS(C)(=O)=O)C(=O)C(=O)NC1CC1 [Jun9-82-2] | 100 | 
38 | CC(=O)N[C@@H](CC1CCCCC1)C(=O)N[C@@H](CC(C)C)C(=O)N[C@@H](CC[S+](C)[O-])C(=O)C(=O)NC1CC1 (stereo partly drawn) [Jun9-87-4] | 270 | 
39 | CCC[C@@H](C=O)NC(=O)[C@H](CC(C)C)NC(=O)[C@H](CC(C)C)NC(=O)OCc1ccccc1 [MG-115 (60), MG-115] (Cbz-Leu-Leu-[Nva]-aldehyde) |  | 2019-nCoV 3CL TSA Tm (SARS-CoV-2 M^pro [2]): 60.51 ± 0.28 °C; 2019-nCoV 3CL TSA ΔTm (SARS-CoV-2 M^pro [2]): 4.77 °C
40 | CC(C)C[C@@H](C=O)NC(=O)[C@H](CC(C)C)NC(=O)[C@H](CC(C)C)NC(=O)OCc1ccccc1 [MG-132 (43), MG-132] (Cbz-Leu-Leu-Leu-aldehyde) |  | inhibition at 20 µM (SARS-CoV-2 M^pro [1]): > 60%
41 | CCCC[C@H](NC(=O)[C@@H]1[C@@H]2[C@H](CN1C(=O)[C@@H](NC(=O)NC1(CS(=O)(=O)C(C)(C)C)CCCCC1)C(C)(C)C)C2(C)C)C(=O)C(=O)NC1CC1 [Narlaprevir (29), Narlaprevir] |  | inhibition at 20 µM (SARS-CoV-2 M^pro [1]): > 60%; 2019-nCoV 3CL TSA Tm (SARS-CoV-2 M^pro [2]): 60.92 ± 0.14/5.18 °C
42 | COc1ccc2c(O[C@@H]3CC4C(=O)N[C@]5(C(=O)NS(=O)(=O)C6CC6)C[C@@H]5/C=C\CCCCN(C)C(=O)C4C3)cc(-c3nc(C(C)C)cs3)nc2c1C (stereo partly drawn) [Simeprevir (24), Simeprevir] |  | inhibition at 20 µM (SARS-CoV-2 M^pro [1]): > 60%
43 | CC(C)[C@H](NC(=O)OCc1ccccc1)C(=O)N[C@H](C=O)Cc1ccccc1 [calpain inhibitor III (MDL28170) (57), calpain inhibitor III] (Cbz-Val-Phe-aldehyde) | > 20000 | 2019-nCoV 3CL TSA Tm (SARS-CoV-2 M^pro [2]): 55.36 ± 0.14 °C; 2019-nCoV 3CL TSA ΔTm (SARS-CoV-2 M^pro [2]): −0.38 °C
